# Measurements: patent publication US9662318B2, “Bitopic muscarinic agonists and antagonists and methods of synthesis and use thereof” (BARRY UNIVERSITY, INC., priority 2012, dated 2017)
# Where two headings read alike, the source gives them in different places.
# How the values were obtained:
# M4 muscarinic receptor [1] = target: T1, M4 muscarinic receptor (Homo sapiens, UniProt P08173); test: biochemical; format: binding; conditions: competition with [^3H]QNB
# T1 construct: host or cells: Chinese hamster ovary cells
# T1 sequence (P08173 1-479): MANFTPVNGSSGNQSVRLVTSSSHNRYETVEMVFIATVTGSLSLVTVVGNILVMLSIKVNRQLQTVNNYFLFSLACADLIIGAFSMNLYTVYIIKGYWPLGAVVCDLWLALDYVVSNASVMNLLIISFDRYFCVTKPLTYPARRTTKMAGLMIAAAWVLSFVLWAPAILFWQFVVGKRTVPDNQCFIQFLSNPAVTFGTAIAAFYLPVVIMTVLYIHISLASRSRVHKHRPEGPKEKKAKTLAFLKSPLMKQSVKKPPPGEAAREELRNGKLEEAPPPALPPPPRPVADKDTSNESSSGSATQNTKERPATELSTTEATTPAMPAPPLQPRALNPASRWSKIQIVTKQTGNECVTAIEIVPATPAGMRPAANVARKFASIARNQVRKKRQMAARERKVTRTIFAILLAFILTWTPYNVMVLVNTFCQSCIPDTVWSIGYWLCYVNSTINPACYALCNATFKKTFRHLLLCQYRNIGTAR
# M1 muscarinic receptor [2] = target: T2, M1 muscarinic receptor (Homo sapiens, UniProt P11229); test: Accumulation of inositol phosphates in CHO cells; format: cell-based; conditions: ligand 0.1 mM, no carbachol
# T2 sequence (P11229 1-460): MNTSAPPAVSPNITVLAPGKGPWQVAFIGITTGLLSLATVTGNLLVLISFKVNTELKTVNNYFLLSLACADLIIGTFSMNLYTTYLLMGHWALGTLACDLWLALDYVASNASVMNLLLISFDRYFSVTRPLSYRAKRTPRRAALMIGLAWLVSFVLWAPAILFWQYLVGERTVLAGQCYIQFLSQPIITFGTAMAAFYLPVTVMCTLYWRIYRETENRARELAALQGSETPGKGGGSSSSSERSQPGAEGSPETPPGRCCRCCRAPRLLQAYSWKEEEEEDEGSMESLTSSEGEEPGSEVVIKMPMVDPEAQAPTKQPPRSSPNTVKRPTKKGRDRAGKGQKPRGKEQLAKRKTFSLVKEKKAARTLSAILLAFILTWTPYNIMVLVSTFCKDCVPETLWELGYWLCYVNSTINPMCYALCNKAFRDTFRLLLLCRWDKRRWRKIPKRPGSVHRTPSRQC
# Experimental: (§2) Chinese hamster ovary cells stably transfected with the genes of human variants of muscarinic receptors were purchased from Missouri S&T cDNA Resource Center (Rolla, Mo., USA). […] Cells were grown to confluency in 75 cm^2 flasks in Dulbecco's modified Eagle's medium supplemented with 10% fetal bovine serum and 2 million of cells were subcultured to 100 mm Petri dishes. Medium was supplemented with 5 mM butyrate for the last 24 hours of cultivation to increase receptor expression.
# (§3) Inositolphosphates formation was determined in cells pre-labeled overnight by 0.5 μM [^3H]myo-inositol in 0.3 mL of DMEM (3 μCi/ml) at 37° C. […] Incubation was stopped by removal of incubation buffer and addition 0.2 mL 20% trichloracetic acid (TCA). After 1 h incubation at 4° C., 100 μL, of TCA extracts were taken for measurement. Rest of the TCA was removed, and TCA precipitates were washed with 200 μL TCA and dissolved in 200 μL of 1 M NaOH. After 1 h incubation at 4° C., 100 μL, of NaOH lysates were taken for measurement. Radioactivity in TCA extracts and NaOH lysates were determined by liquid scintillation counting. The rate of inositolphosphates accumulation was calculated as a percentage of the soluble (released) inositolphosphates from the total incorporated radioactivity (sum of radioactivity in NaOH lysates and TCA extracts).
# (§4) EC50 values are expressed as negative logarithms and EMAX values as folds over basal, Table 7.
# [3] = system: M1-M5 muscarinic receptors; test: Competition with [3H]NMS, statements over all subtypes; format: binding, human; conditions: competition experiments, all M1-M5
# M5 muscarinic receptor [4] = target: T3, M5 muscarinic receptor (Homo sapiens, UniProt P08912); test: biochemical; format: binding; conditions: competition with [^3H]QNB
# T3 construct: host or cells: CHO (Chinese hamster ovary) cells, stably transfected
# T3 sequence (P08912 1-532): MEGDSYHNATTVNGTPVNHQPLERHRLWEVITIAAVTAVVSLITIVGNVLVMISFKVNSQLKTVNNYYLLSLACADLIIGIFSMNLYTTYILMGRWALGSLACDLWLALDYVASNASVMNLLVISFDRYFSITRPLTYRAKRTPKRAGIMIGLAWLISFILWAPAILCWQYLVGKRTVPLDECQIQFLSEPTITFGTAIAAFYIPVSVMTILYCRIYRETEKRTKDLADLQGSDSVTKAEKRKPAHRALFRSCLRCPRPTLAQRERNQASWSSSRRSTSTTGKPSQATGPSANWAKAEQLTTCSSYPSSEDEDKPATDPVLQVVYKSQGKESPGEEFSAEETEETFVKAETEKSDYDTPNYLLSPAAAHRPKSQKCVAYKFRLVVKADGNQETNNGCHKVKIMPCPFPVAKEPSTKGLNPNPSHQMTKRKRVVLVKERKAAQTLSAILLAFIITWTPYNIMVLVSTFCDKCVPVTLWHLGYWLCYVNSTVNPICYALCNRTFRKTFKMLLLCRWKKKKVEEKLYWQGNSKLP
# M5 muscarinic receptor [5] = target: T3, M5 muscarinic receptor; test: Accumulation of inositol phosphates in CHO cells; format: cell-based; conditions: M5; ligand 0.1 mM; no carbachol
# Experimental: as §2, §3, §4
# [6] = system: M1-M5 muscarinic receptors; format: binding, human; conditions: competition experiments, all M1-M5
# M4 muscarinic receptor [7] = target: T1, M4 muscarinic receptor; test: Dissociation of [3H]NMS (full time course kinetics); format: binding; conditions: [^3H]NMS dissociation
# Excerpt: (§1) To probe the ability of JB-D4 to allosterically modulate orthosteric ligand, its effect on the rate of orthosteric radioligand dissociation has been investigated. […] Eq. 1 was fitted to the data from kinetic experiments. Data are means±SD from 3 independent experiments performed in quadruplicates. Equations: y=(100-f2)*e^(-Koff1*X)+f2*e^(-Koff2*X) (Eq. 1) where y is the percentage of radioligand binding at time x of radioligand binding at time 0, koff1 and koff2 are rate dissociation constants and f2 is the percentage of sites with koff2 rate of dissociation. […]. 2)
# M5 muscarinic receptor [8] = target: T3, M5 muscarinic receptor; test: as above; format: binding; conditions: [^3H]NMS dissociation, +0.1 mM JB-D4, M5
# Excerpt: as §1
# M1 muscarinic receptor [9] = target: T2, M1 muscarinic receptor; test: as above; format: binding; conditions: [^3H]NMS dissociation
# Excerpt: as §1
# M3 muscarinic receptor = target: T4, M3 muscarinic receptor (Homo sapiens, UniProt P20309); test: as above; format: binding; conditions: [^3H]NMS dissociation
# T4 construct: host or cells: Chinese hamster ovary cells
# T4 sequence (P20309 whole entry): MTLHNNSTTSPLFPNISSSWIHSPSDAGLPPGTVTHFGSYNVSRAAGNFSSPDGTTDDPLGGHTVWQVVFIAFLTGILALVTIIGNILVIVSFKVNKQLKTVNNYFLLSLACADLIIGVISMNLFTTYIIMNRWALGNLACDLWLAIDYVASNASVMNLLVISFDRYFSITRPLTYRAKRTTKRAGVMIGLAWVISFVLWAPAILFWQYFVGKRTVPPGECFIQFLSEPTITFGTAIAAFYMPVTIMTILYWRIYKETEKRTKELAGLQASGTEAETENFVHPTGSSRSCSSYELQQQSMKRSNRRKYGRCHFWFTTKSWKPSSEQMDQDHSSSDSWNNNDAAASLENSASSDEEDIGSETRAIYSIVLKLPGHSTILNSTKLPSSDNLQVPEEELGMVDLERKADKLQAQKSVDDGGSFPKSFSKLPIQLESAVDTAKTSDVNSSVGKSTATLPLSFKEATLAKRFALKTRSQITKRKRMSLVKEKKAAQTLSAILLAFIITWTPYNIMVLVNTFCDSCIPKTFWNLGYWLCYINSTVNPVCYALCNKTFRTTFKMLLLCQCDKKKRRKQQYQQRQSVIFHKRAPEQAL
# Excerpt: as §1
# M4 muscarinic receptor [10] = target: T1, M4 muscarinic receptor; test: Accumulation of inositol phosphates in CHO cells; format: cell-based; conditions: M4; ligand 0.1 mM; no carbachol
# Experimental: as §2, §3, §4
structure (smiles),measurement,setting,value
"CCCCOc1ccc(C(=O)OCC[N+]2(C)CCCCC2)cc1.[I-] [JB-D4, 2-(N-piperidineethyl) p-butoxybenzoate N-methyl iodide]",Ki,M4 muscarinic receptor [1]; M4,3.08 µM
same,IC50,"M4 muscarinic receptor [1]; M4, average of 3, read-out: avg IC50",27.1 µM
same,IC50,"M4 muscarinic receptor [1]; M4, experiment 1, read-out: IC50—1",20.6 µM
same,IC50,"M4 muscarinic receptor [1]; M4, experiment 2, read-out: IC50—2",32.6 µM
same,IC50,"M4 muscarinic receptor [1]; M4, experiment 3, read-out: IC50—3",28.1 µM
same,Effect of ligands on basal activity (accumulation of inositol phosphates as percent of accumulation in the absence of the ligand),M1 muscarinic receptor [2],97 ± 2%
same,inhibition of [^3H]NMS binding,[3],fully inhibit
same,Ki,M5 muscarinic receptor [4]; M5,0.827 µM
same,IC50,"M5 muscarinic receptor [4]; M5, average of 3, read-out: avg IC50",6.61 µM
same,IC50,"M5 muscarinic receptor [4]; M5, experiment 1, read-out: IC50—1",5.73 µM
same,IC50,"M5 muscarinic receptor [4]; M5, experiment 2, read-out: IC50—2",6.76 µM
same,IC50,"M5 muscarinic receptor [4]; M5, experiment 3, read-out: IC50—3",7.34 µM
same,Effect of ligands on basal activity (accumulation of inositol phosphates as percent of accumulation in the absence of the ligand),M5 muscarinic receptor [5],98 ± 3%
same,inhibition of QNB binding,[6],fully inhibit
same,koff1,"M4 muscarinic receptor [7]; +0.1 mM JB-D4, M4",0.000106 ± 8.3e-06 s⁻¹
same,koff1,"M4 muscarinic receptor [7]; +1 mM JB-D4, M4",2.11e-05 ± 1.7e-06 s⁻¹
same,koff1,M5 muscarinic receptor [8],5e-05 ± 2.8e-06 s⁻¹
same,koff1,"M1 muscarinic receptor [9]; +0.1 mM JB-D4, M1",0.000253 ± 1.4e-05 s⁻¹
same,koff2,"M1 muscarinic receptor [9]; +0.1 mM JB-D4, M1",0.000319 ± 1.7e-05 s⁻¹
same,f2,"M1 muscarinic receptor [9]; +0.1 mM JB-D4, M1, percentage of sites with koff2",12 ± 1%
same,koff1,"M1 muscarinic receptor [9]; +1 mM JB-D4, M1",0.000169 ± 1.7e-05 s⁻¹
same,koff1,"M3 muscarinic receptor; +0.1 mM JB-D4, M3",0.000114 ± 8.3e-06 s⁻¹
same,koff1,"M3 muscarinic receptor; +1 mM JB-D4, M3",2.36e-05 ± 2.2e-06 s⁻¹
same,Effect of ligands on basal activity (accumulation of inositol phosphates as percent of accumulation in the absence of the ligand),M4 muscarinic receptor [10],98 ± 4%
